Test results: ChEMBL document CHEMBL6121016, “Design, Synthesis, and Biological Evaluation of 1,3,4-Thiadiazole Derivatives as Novel Potent Peptide Deformylase Inhibitors for Combating Drug-Resistant Gram-Positive and -Negative Bacteria” (J Med Chem, 2025)
≈ marks a conversion by molar mass, not a printed value.

Tests used:
Assay type in all cases: functional
Conditions in all cases: time 16-18 hrs
Staphylococcus aureus [1] = assay: Antibacterial activity against methicillin-resistant Staphylococcus aureus ATCC 43300 after 16 to 18 hrs by broth microdilution method
Staphylococcus aureus [2] = assay: Antibacterial activity against methicillin-susceptible Staphylococcus aureus ATCC 29213 after 16 to 18 hrs by broth microdilution method
Escherichia coli = assay: Antibacterial activity against Escherichia coli ATCC 25922 after 16 to 18 hrs by broth microdilution method
Acinetobacter baumannii [3] = assay: Antibacterial activity against Acinetobacter baumannii Bio 34235 after 16 to 18 hrs by broth microdilution method
Acinetobacter baumannii [4] = assay: Antibacterial activity against drug-resistant Acinetobacter baumannii Bio 53272 after 16 to 18 hrs by broth microdilution method
Staphylococcus aureus [5] = assay: Antibacterial activity against methicillin-susceptible Staphylococcus aureus ATCC 13709 after 16 to 18 hrs by broth microdilution method
[6] = test system: Staphylococcus epidermidis; assay: Antibacterial activity against Staphylococcus epidermidis after 16 to 18 hrs by broth microdilution method
Klebsiella pneumoniae = assay: Antibacterial activity against Klebsiella pneumoniae CICC 21611 after 16 to 18 hrs by broth microdilution method
Staphylococcus aureus [7] = assay: Antibacterial activity against methicillin-susceptible Staphylococcus aureus ATCC 25923 after 16 to 18 hrs by broth microdilution method
Staphylococcus aureus [8] = assay: Antibacterial activity against methicillin-resistant Staphylococcus aureus ATCC 33591 after 16 to 18 hrs by broth microdilution method
Staphylococcus aureus [9] = assay: Antibacterial activity against methicillin-resistant Staphylococcus aureus Bio-090770 after 16 to 18 hrs by broth microdilution method

| Compound | MIC (Staphylococcus aureus [1]) | MIC (Staphylococcus aureus [2]) | MIC (Escherichia coli) | MIC (Acinetobacter baumannii [3]) | MIC (Acinetobacter baumannii [4]) | MIC (Staphylococcus aureus [5]) | MIC [6] | MIC (Klebsiella pneumoniae) | MIC (Staphylococcus aureus [7]) | MIC (Staphylococcus aureus [8]) | MIC (Staphylococcus aureus [9]) |
| --- | --- | --- | --- | --- | --- | --- | --- | --- | --- | --- | --- |
| CCCC[C@H](CN(O)C=O)C(=O)N1CCC[C@H]1c1nnc(-c2ccc(F)cc2)s1 | 1 µg/mL (≈ 2.38 µM) | 2 µg/mL (≈ 4.76 µM) | 16 µg/mL (≈ 38 µM) | > 16 µg/mL | 8 µg/mL (≈ 19 µM) | 1 µg/mL (≈ 2.38 µM) | 2 µg/mL (≈ 4.76 µM) | > 16 µg/mL | 2 µg/mL (≈ 4.76 µM) | 0.25 µg/mL (≈ 0.595 µM) | 2 µg/mL (≈ 4.76 µM) |
| CCCC[C@H](CN(O)C=O)C(=O)N1CCC[C@H]1c1nnc(-c2sccc2F)s1 | 0.5 µg/mL (≈ 1.17 µM) | 0.5 µg/mL (≈ 1.17 µM) | 64 µg/mL (≈ 150 µM) | 16 µg/mL (≈ 37.5 µM) | 16 µg/mL (≈ 37.5 µM) | 0.5 µg/mL (≈ 1.17 µM) | 1 µg/mL (≈ 2.34 µM) | 16 µg/mL (≈ 37.5 µM) | 0.5 µg/mL (≈ 1.17 µM) | 0.5 µg/mL (≈ 1.17 µM) | 2 µg/mL (≈ 4.69 µM) |
| CCCC[C@H](CN(O)C=O)C(=O)N1CCC[C@H]1c1nnc(-c2ccc(F)cn2)s1 | 0.5 µg/mL (≈ 1.19 µM) | 1 µg/mL (≈ 2.37 µM) | 16 µg/mL (≈ 38 µM) | 16 µg/mL (≈ 38 µM) | 8 µg/mL (≈ 19 µM) | 2 µg/mL (≈ 4.74 µM) | 2 µg/mL (≈ 4.74 µM) | > 16 µg/mL | 2 µg/mL (≈ 4.74 µM) | 0.5 µg/mL (≈ 1.19 µM) | 2 µg/mL (≈ 4.74 µM) |
| CCCC[C@H](CN(O)C=O)C(=O)N1CCC[C@H]1c1nnc(-c2ccco2)s1 | 0.5 µg/mL (≈ 1.27 µM) | 2 µg/mL (≈ 5.1 µM) | 64 µg/mL (≈ 163 µM) | 16 µg/mL (≈ 40.8 µM) | 16 µg/mL (≈ 40.8 µM) | 1 µg/mL (≈ 2.55 µM) | 0.5 µg/mL (≈ 1.27 µM) | 32 µg/mL (≈ 81.5 µM) | 4 µg/mL (≈ 10.2 µM) | 0.5 µg/mL (≈ 1.27 µM) | 2 µg/mL (≈ 5.1 µM) |
| CCCC[C@H](CN(O)C=O)C(=O)N1CCC[C@H]1c1nnc(-c2ccc(Br)cc2)s1 | 0.5 µg/mL (≈ 1.04 µM) | 1 µg/mL (≈ 2.08 µM) | > 16 µg/mL | > 16 µg/mL | 16 µg/mL (≈ 33.2 µM) | 0.5 µg/mL (≈ 1.04 µM) | 1 µg/mL (≈ 2.08 µM) | > 16 µg/mL | 0.5 µg/mL (≈ 1.04 µM) | 0.5 µg/mL (≈ 1.04 µM) | 1 µg/mL (≈ 2.08 µM) |
| CCCCc1ccc(-c2nnc([C@@H]3CCCN3C(=O)[C@H](CCCC)CN(O)C=O)s2)cc1 | 2 µg/mL (≈ 4.36 µM) | 4 µg/mL (≈ 8.72 µM) | > 16 µg/mL | > 16 µg/mL | > 16 µg/mL | 4 µg/mL (≈ 8.72 µM) | 8 µg/mL (≈ 17.4 µM) | > 16 µg/mL | 4 µg/mL (≈ 8.72 µM) | 2 µg/mL (≈ 4.36 µM) | 4 µg/mL (≈ 8.72 µM) |
| CCCC[C@H](CN(O)C=O)C(=O)N1CCC[C@H]1c1nnc(C2CC2)s1 | 1 µg/mL (≈ 2.73 µM) | 4 µg/mL (≈ 10.9 µM) | > 16 µg/mL | > 16 µg/mL | > 16 µg/mL | 2 µg/mL (≈ 5.46 µM) | 0.5 µg/mL (≈ 1.36 µM) | > 16 µg/mL | 2 µg/mL (≈ 5.46 µM) | 1 µg/mL (≈ 2.73 µM) | 4 µg/mL (≈ 10.9 µM) |
| CCCC[C@H](CN(O)C=O)C(=O)N1CCC[C@H]1c1nnc(-c2ccc(Br)s2)s1 | 0.25 µg/mL (≈ 0.513 µM) | 2 µg/mL (≈ 4.1 µM) | 64 µg/mL (≈ 131 µM) | 32 µg/mL (≈ 65.6 µM) | 16 µg/mL (≈ 32.8 µM) | 2 µg/mL (≈ 4.1 µM) | 1 µg/mL (≈ 2.05 µM) | 32 µg/mL (≈ 65.6 µM) | 1 µg/mL (≈ 2.05 µM) | 0.25 µg/mL (≈ 0.513 µM) | 2 µg/mL (≈ 4.1 µM) |
| CCCC[C@H](CN(O)C=O)C(=O)N1CCC[C@H]1c1nnc(-c2cc(C(F)(F)F)cc(C(F)(F)F)c2)s1 | 2 µg/mL (≈ 3.71 µM) | 4 µg/mL (≈ 7.43 µM) | > 16 µg/mL | > 16 µg/mL | > 16 µg/mL | 2 µg/mL (≈ 3.71 µM) | > 16 µg/mL | > 16 µg/mL | 2 µg/mL (≈ 3.71 µM) | 2 µg/mL (≈ 3.71 µM) | 4 µg/mL (≈ 7.43 µM) |
| CCCC[C@H](CN(O)C=O)C(=O)N1CCC[C@H]1c1nnc(C2CCCCC2)s1 | 1 µg/mL (≈ 2.45 µM) | 2 µg/mL (≈ 4.9 µM) | > 16 µg/mL | > 16 µg/mL | > 16 µg/mL | 2 µg/mL (≈ 4.9 µM) | 4 µg/mL (≈ 9.79 µM) | > 16 µg/mL | 2 µg/mL (≈ 4.9 µM) | 0.5 µg/mL (≈ 1.22 µM) | 2 µg/mL (≈ 4.9 µM) |
| CCCC[C@H](CN(O)C=O)C(=O)N1CCC[C@H]1c1nnc(-c2ccccc2)s1 | 4 µg/mL (≈ 9.94 µM) | 8 µg/mL (≈ 19.9 µM) | > 16 µg/mL | > 16 µg/mL | > 16 µg/mL | 2 µg/mL (≈ 4.97 µM) | 4 µg/mL (≈ 9.94 µM) | > 16 µg/mL | 4 µg/mL (≈ 9.94 µM) | 2 µg/mL (≈ 4.97 µM) | 8 µg/mL (≈ 19.9 µM) |
| CCCC[C@H](CN(O)C=O)C(=O)N1CCC[C@H]1c1nnc(C2CCCC2)s1 | 0.5 µg/mL (≈ 1.27 µM) | 2 µg/mL (≈ 5.07 µM) | > 16 µg/mL | > 16 µg/mL | 8 µg/mL (≈ 20.3 µM) | 2 µg/mL (≈ 5.07 µM) | 1 µg/mL (≈ 2.53 µM) | > 16 µg/mL | 1 µg/mL (≈ 2.53 µM) | 0.5 µg/mL (≈ 1.27 µM) | 2 µg/mL (≈ 5.07 µM) |
| CCCC[C@H](CN(O)C=O)C(=O)N1CCC[C@H]1c1nnc(-c2ccc(-c3ccccc3)cc2)s1 | 1 µg/mL (≈ 2.09 µM) | 2 µg/mL (≈ 4.18 µM) | > 16 µg/mL | > 16 µg/mL | > 16 µg/mL | 2 µg/mL (≈ 4.18 µM) | > 16 µg/mL | > 16 µg/mL | 2 µg/mL (≈ 4.18 µM) | 1 µg/mL (≈ 2.09 µM) | 2 µg/mL (≈ 4.18 µM) |
| CCCC[C@H](CN(O)C=O)C(=O)N1CCC[C@H]1c1nnc(Cc2cccs2)s1 | 1 µg/mL (≈ 2.37 µM) | 2 µg/mL (≈ 4.73 µM) | > 16 µg/mL | 16 µg/mL (≈ 37.9 µM) | 16 µg/mL (≈ 37.9 µM) | 2 µg/mL (≈ 4.73 µM) | 2 µg/mL (≈ 4.73 µM) | > 16 µg/mL | 2 µg/mL (≈ 4.73 µM) | 0.5 µg/mL (≈ 1.18 µM) | 2 µg/mL (≈ 4.73 µM) |
| CCCC[C@H](CN(O)C=O)C(=O)N1CCC[C@H]1c1nnc(-c2ccc(OC)cc2)s1 | 0.25 µg/mL (≈ 0.578 µM) | 0.5 µg/mL (≈ 1.16 µM) | > 16 µg/mL | 16 µg/mL (≈ 37 µM) | > 8 µg/mL | 0.5 µg/mL (≈ 1.16 µM) | 1 µg/mL (≈ 2.31 µM) | > 16 µg/mL | 0.5 µg/mL (≈ 1.16 µM) | 0.25 µg/mL (≈ 0.578 µM) | 1 µg/mL (≈ 2.31 µM) |
| CCCC[C@H](CN(O)C=O)C(=O)N1CCC[C@H]1c1nnc(-c2ccnc(C(F)(F)F)c2)s1 | 0.25 µg/mL (≈ 0.53 µM) | 0.5 µg/mL (≈ 1.06 µM) | 128 µg/mL (≈ 271 µM) | 64 µg/mL (≈ 136 µM) | 16 µg/mL (≈ 33.9 µM) | 0.5 µg/mL (≈ 1.06 µM) | 1 µg/mL (≈ 2.12 µM) | 64 µg/mL (≈ 136 µM) | 0.5 µg/mL (≈ 1.06 µM) | 0.25 µg/mL (≈ 0.53 µM) | 1 µg/mL (≈ 2.12 µM) |
| CCCC[C@H](CN(O)C=O)C(=O)N1CCC[C@H]1c1nnc(C)s1 | 4 µg/mL (≈ 11.7 µM) | 4 µg/mL (≈ 11.7 µM) | 16 µg/mL (≈ 47 µM) | > 16 µg/mL | 8 µg/mL (≈ 23.5 µM) | 4 µg/mL (≈ 11.7 µM) | 0.25 µg/mL (≈ 0.734 µM) | > 16 µg/mL | 4 µg/mL (≈ 11.7 µM) | 1 µg/mL (≈ 2.94 µM) | 4 µg/mL (≈ 11.7 µM) |
